Experimental data: patent publication US6806359B1, “Hormone receptor compositions and methods” (The Salk Institute for Biological Studies, priority 1986, dated 2004)
Entries after “also recorded” stand apart in the source; their conditions may differ.

Columns and labels:
MR = conditions: read-out: reported KD values for aldosterone binding to MR; cited from earlier work
hMR [1] = biological target: T1, hMR (Homo sapiens, UniProt P08235); test: Transcriptional activation of MMTV LTR (GMCAT) by hMR in transfected CV1 cells; type: cell-based; set-up: expressed in transfected cells; conditions: pRShMR + GMCAT, charcoal-treated serum, 10 nM steroid
T1 sequence (P08235 1-984): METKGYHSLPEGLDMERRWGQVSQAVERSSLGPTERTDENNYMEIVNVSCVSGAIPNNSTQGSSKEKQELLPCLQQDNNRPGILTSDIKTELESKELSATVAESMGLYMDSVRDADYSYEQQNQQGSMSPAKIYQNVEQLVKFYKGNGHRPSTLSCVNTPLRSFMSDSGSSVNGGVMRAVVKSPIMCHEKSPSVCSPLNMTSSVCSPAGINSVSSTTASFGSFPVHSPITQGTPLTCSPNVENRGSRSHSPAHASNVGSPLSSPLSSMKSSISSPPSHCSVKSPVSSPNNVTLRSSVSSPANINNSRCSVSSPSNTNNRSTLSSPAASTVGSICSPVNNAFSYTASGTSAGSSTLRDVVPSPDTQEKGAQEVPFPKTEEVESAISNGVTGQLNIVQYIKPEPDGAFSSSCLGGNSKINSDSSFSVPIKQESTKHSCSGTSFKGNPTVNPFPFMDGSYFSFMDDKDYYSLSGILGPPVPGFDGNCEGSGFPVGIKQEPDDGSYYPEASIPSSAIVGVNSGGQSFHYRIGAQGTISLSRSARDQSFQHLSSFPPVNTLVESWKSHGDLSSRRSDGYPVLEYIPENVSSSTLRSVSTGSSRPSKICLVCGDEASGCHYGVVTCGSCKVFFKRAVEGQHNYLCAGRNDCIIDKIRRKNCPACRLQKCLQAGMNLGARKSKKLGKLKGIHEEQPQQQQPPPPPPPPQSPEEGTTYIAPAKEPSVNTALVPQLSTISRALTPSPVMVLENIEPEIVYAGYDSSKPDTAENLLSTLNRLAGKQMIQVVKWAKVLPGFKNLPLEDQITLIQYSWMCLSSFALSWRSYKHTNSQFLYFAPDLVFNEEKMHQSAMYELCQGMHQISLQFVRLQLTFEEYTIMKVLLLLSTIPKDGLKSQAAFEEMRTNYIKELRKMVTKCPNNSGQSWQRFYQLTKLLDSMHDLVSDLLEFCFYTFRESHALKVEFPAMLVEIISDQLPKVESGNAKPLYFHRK
Source text: Steroid hormone action is characterized by hormone-dependent modulation of target gene transcription. The assay for transcriptional regulation by transfected hGR in CVI cells (see Experimental Section II) was adapted to hMR (FIGS. 42 and 44). The expression plasmid used for steroid-binding assays, pRShMR, was cotransfected with a reporter plasmid called GMCAT, which contains the MMTV LTR linked to the bacterial gene for chloramphenicol acetyltransferase (CAT). Thus CAT activity provides an enzymatic assay for the transcriptional activity of the MMTV promoter. The MMTV promoter contains several glucorticoid response elements (GRE's), enhancer-like DNA sequences that confer glucocorticoid responsiveness via interaction with the GR (21).
FIG. 42 Structure of GMCAT. This plasmid was cotransfected with the steroid receptors as a reporter gene for hormone-dependent transcriptional activation (see Experimental Section II). […] Transfected cells were maintained in DMEM with 5 percent fetal calf serum. Serum was treated with charcoal to eliminate free steroids in subsequent experiments so that the effects of exogenous steroids could be determined. […] (D) AC, 3-acetylchloramphenicol; C, chloramphenicol. Two days after transfection by calcium phosphate coprecipitation (43), extracts were prepared for CAT assay (44). The assays were incubated for 6 hours with 50 micrograms of protein extract.

rTR alpha = biological target: T2, rTR alpha (Rattus norvegicus, UniProt P63059); test: ^125I-T3 binding to in vitro translated rTR alpha (Scatchard and competition); conditions: excess competitor
T2 construct: made in house; host or cells: rabbit reticulocyte lysate (SP6 transcripts of rbeA12B)
T2 sequence (P63059 1-410 isoform P63059-2): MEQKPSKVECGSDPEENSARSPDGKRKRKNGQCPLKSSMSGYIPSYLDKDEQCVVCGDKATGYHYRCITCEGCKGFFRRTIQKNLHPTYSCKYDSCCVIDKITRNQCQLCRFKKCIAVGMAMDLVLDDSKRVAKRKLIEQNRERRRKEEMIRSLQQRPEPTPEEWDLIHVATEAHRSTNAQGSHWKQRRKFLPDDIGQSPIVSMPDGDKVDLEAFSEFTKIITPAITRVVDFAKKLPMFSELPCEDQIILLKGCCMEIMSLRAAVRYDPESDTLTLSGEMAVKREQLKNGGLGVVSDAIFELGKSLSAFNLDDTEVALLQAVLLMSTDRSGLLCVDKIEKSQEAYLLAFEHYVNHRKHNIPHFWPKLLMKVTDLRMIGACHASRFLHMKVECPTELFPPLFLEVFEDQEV
Source text: In vitro translation and thyroid hormone binding of rTR alpha FIG. 69 rTR alpha was transcribed in vitro and translated in a rabbit reticulocyte lysate. […] Lane 1, no added RNA; lane 2, rbeA12, which contains the entire 5′ untranslated region; lane 3, rbeA12B, which contains only 97 bp of 5′ untranslated sequence. […] Samples from rbeA12B programmed lysates were mixed with increasing concentrations of unlabeled thyroid hormone or analogs to compete with labeled hormone. […] In vitro transcription and translation and hormone binding were performed as described (22, 23).
23. For in vitro transcription, the entire EcoRI insert of rbeA12 was cloned into pGEM1 (Promega Biotec). […] For thyroid hormone binding, transcriptions were performed with SP6 polymerase and 5 to 10 micrograms of rbeA12B linearized with SstI. […] Thyroid hormone binding for both the Scatchard and competition analyses were determined in the same manner, except that unlabeled protein was used for the Scatchard analysis. […] Specific hormone binding was determined by adding a 1000-fold excess of unlabeled hormone and assayed by counting radioactivity eluting in the excluded volume from a Sephadex G-25 fine (Pharmacia) 0.9-by 4.0-cm. column.

GR [2] = biological target: T3, GR (Homo sapiens, UniProt P04150); test: Transcriptional activation of MMTV LTR (GMCAT) by hGR in transfected CV1 cells; type: cell-based; set-up: The expression vector linking the RSV LTR to full length hGR cDNA (pRShGR alpha) was designed to obtain high levels of expression; expressed in transfected cells; host or cells: CV1 monkey kidney cells, cotransfected with GMCAT; conditions: pRShGR alpha + GMCAT, 10 nM steroid
T3 sequence (P04150 1-777): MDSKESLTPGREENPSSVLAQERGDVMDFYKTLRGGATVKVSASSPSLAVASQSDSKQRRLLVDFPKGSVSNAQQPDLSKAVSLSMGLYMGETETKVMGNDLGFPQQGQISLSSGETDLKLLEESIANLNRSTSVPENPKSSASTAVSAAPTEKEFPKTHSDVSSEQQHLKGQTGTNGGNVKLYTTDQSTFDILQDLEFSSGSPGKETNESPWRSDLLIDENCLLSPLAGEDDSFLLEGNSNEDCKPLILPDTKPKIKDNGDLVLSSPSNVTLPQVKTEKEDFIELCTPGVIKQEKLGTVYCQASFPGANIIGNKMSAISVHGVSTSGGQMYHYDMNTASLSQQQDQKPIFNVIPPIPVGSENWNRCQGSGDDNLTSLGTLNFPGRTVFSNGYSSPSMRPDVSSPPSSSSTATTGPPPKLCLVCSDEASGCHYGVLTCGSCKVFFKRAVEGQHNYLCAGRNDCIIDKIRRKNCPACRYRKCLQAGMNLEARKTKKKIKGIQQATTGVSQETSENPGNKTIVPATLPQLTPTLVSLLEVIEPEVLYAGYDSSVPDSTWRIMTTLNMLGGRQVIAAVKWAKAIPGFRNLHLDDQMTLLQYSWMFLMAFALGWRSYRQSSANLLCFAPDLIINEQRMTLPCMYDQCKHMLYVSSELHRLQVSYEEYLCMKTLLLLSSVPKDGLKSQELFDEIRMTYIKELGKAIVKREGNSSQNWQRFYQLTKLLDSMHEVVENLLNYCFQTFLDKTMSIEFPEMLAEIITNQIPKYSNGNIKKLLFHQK

GR [3] = biological target: T3, GR; conditions: read-out: KD for binding to GR; cited from earlier work
hMR [4] = biological target: T1, hMR; test: [^3H]aldosterone binding and steroid competition in extracts of pRShMR-transfected COS cells; set-up: expressed in transfected cells; host or cells: COS cells transfected with pRShMR (DEAE-dextran); conditions: 1-, 10-, or 100-fold molar excess of unlabeled steroid
Procedure: Ligand specificity of the hMR protein was determined by preparing cytosol extracts from COS cells transfected with pRShMR. Two days after transfection, cells were harvested, and hormone binding was measured by a dextran-treated charcoal assay. […] This provided a measure of the relative affinity of each of these steroids for hMR.
Steroid-binding properties of expressed hMR. FIG. 38 Structure of pRShMR, the hMR expression plasmid (41). […] Each point was assayed in triplicate with 100 micrograms of extract protein in a 200-microliter incubation at 0° C. for 2.5 hours. […] The results of two independent trials representative of these competition experiments are shown. Cold competitor was present in 1-, 10-, or 100-fold molar excess. […] Subconfluent COS cells were transfected by the DEAE-dextran method (42) with 10 micrograms of pRShMR per dish. Cells were maintained for 2 days in DMEM (Dulbecco's modification of Eagle's minimum essential medium) with 5 percent charcoal-treated fetal calf serum, then harvested in […] tris-HCl. (pH 7.8), 10 nM NaCl, 1 mM EDTA, 10 mM Na2MoO4, 5 mM dithiothreitol, antipain (5 microgram/ml), leupeptin (5 microgram/ml), and 500 microM phenylmethylsulfonyl fluoride. After centrifugation at 15,000×g for 10 minutes, extracts were adjusted to 100 mM NaCl and 5 percent glycerol before binding. […] After centrifugation at 15,000×g for 2 minutes at 40C, tritium in supernatant was quantified by liquid scintillation spectrophotometry.

[5] = biological target: T4, alpha-hGR (human glucocorticoid receptor) translated in vitro (Homo sapiens, UniProt P04150); test: Steroid binding (^3H-triamcinolone acetonide) of hGR translated in vitro in reticulocyte lysate, competition by unlabeled steroids; conditions: 100-fold excess unlabeled competitor (15 microM), 2 h at 0° C.
T4 construct: We describe the use of the SP6 transcription vector system to generate analytical amounts of full-length protein; made in house; host or cells: rabbit reticulocyte lysate (cell-free translation of SP6 transcripts)
T4 sequence (P04150 1-777): T3 sequence (P04150 1-777)
Procedure: Steroid-binding of alpha-hGR translated in vitro. […] Bars represent bound ^3H-triamcinolone acetonide (TA) determined with a 100-fold excess of various steroid competitors; 100% competition was determined using unlabeled TA as competitor. The values represent the mean of triplicate determinations, with error bars showing […].
Binding assays were performed in 100 microliters containing 10 mM Tris-HCl pH 7.4, 100 mM NaCl, 1 mM EDTA, 10 mM sodium molybdate, 10 dithiothreitol, […] ^3H-TA (20 Ci mmol^−1, Amersham) and 10 microliters translation mixture or 100 microgram fresh 1M-9 cytosol. Unlabeled steroid competitor (15 microM) was added as indicated. After 2 h at 0° C., samples were extracted twice for 5 min. each with 5 microliter of 50% dextran-coated charcoal to remove unbound steroid, and counted.

## C[C@]12CCC(=O)C=C1CC[C@@H]1[C@@H]2[C@@H](O)C[C@]2(C=O)[C@@H](C(=O)CO)CC[C@@H]12 [aldosterone]
MR
  Kd: 0.5 to 3 nM
hMR [1]
  hMR-mediated CAT activity response (in words): became responsive; also recorded: approximately equivalent
rTR alpha
  competition for T3 binding to rTR alpha by excess compound: no competition
GR [2]
  hGR-mediated CAT activity response (in words): did not respond; also recorded: insensitive
GR [3]
  Kd: 25 to 65 nM

## C[C@]12CCC(=O)C=C1CC[C@@H]1[C@@H]2[C@@H](O)C[C@@]2(C)[C@H]1CC[C@]2(O)C(=O)CO [cortisol]
hMR [4]
  relative affinity for hMR by competition with 5 nM [^3H]aldosterone (in words): compete as effectively as aldosterone itself
hMR [4]; listed as hydrocortisone
  relative affinity for hMR by competition with 5 nM [^3H]aldosterone (in words): very similar affinities
hMR [1]
  hMR-mediated CAT activity response (in words): also observed
[5]
  competition with ^3H-TA binding to in vitro-synthesized alpha-hGR by excess unlabeled steroid: could be competed with
